Data reported in paper PMC11219860, “A chemogenetic approach for dopamine imaging with tunable sensitivity” (Nature Communications, 2024).

Key:
hM4Di in VTA DA neurons = molecular target: T1, hM4Di in VTA DA neurons (Homo sapiens, UniProt P08173, A203G/Y113C); test: Chemogenetic inhibition of VTA DA neurons with NAc dLight1.3b photometry; format: in vivo, mouse; details: J60 0.2 or 1 mg/kg, 10 minutes after DETQ
T1 construct: mCherry; expressed in transfected cells; host or cells: VTA dopamine neurons of DAT-IRES-cre mice, Cre-dependent AAV5
T1 sequence (P08173 whole entry Y113C/A203G): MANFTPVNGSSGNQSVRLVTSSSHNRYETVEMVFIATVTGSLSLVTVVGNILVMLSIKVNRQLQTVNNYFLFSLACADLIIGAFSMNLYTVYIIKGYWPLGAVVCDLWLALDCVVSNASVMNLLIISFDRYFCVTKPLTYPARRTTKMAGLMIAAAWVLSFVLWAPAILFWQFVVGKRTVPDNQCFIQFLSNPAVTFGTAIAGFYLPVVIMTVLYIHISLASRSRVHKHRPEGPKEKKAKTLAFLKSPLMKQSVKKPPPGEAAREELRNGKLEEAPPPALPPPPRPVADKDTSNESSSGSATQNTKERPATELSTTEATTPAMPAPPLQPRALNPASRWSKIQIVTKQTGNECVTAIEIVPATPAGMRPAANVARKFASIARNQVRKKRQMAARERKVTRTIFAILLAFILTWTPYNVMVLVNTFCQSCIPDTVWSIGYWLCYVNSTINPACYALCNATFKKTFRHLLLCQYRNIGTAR
Protocol: Fiber photometry combined with optogenetics was conducted using a RZ10X LUX-I/O Processor with integrated LEDs (Tucker-Davis Technologies) combined with a filter/mirror minicube set (FMC6_IE(400-410)_E1(467-497)_F1(507-554)_E2(566-586)_F2(600-680)_S) (Doric Lenses). […] Low-autofluorescence patch cords (400 µm/0.57 NA, Doric) were attached to the optic fibers (400 µm/0.66 NA, Doric) on the mouse’s head to collect fluorescence emissions. Signals were filtered through 500–540 nm GFP emission filters coupled to a photodetector on the RZ10X. […] Data were sampled at 1017.3 Hz. […] DA release was measured with fiber photometry. […] After each injection, NAc DA axons were optically (opto) activated across 3 trials (2 s, 20 Hz, 20-ms pulses) every 5 min and DA released measured with fiber photometry. […] After each injection, NAc DA axons were optically (opto) inhibited (10 s, continuous trials) every 3 min (8 trials/condition) and DA released measured with fiber photometry. […] DA release was measured with fiber photometry.
For long-term recordings during optogenetic stimulation or chemogenetic inhibition linear fit was calculated across the entire recording or across the vehicle epoch; for event-related experiments fit was performed on fluorescent data obtained in the −60 to +60 s around opto events or −5 to −1 s around behavioral events. […]

NAc DRD1-MSNs = test: Footshock-induced NAc DRD1-MSN activity (jGCaMP8m photometry); details: DETQ 10 mg/kg; SCH-23390 0.1 mg/kg i.p.
Protocol: Cue-reward paradigm (NAc recordings) was carried out in an operant chamber within a sound-attenuating box with low red light illumination (30 Lux). […] During the next session mice were trained to initiate reward delivery via licking. […] During expert sessions CS-US pairings were repeated 20 times per session ( ~ 30 min for each session). Mice underwent a total of 12 sessions for cue-reward learning. 10 minutes before each session drugs were injected i.p. […] The rewards were delivered from 10 to 40 min post vehicle or DETQ injection. Chambers and lick ports were sanitized with ethanol between mice. For all sessions, lick data and photometry recordings were simultaneously obtained; licking behaviour was detected by a capacity-based sensor. Latency to reward-anticipatory licking was calculated as the time between the CS and lick onset. The lick proportion was calculated as the percent time mice spent licking during CS presentation divided by the percent time mice spent licking during the rest of the session (without CS). […] Fiber photometry recordings were analyzed using custom-written Matlab scripts. […] Change in fluorescence, ΔF/F0 (%), was defined as (F-F0)/F0 x 100, where F represents the fluorescent signal (465-nm) at each time point. F0 was calculated by applying a least-squares linear fit (polyfit) to the 405-nm signal to align with the 465-nm signal. […]

[1] = ref Svensson et al 2019; Meltzer et al., 2019; Rajagopal et al., 2024; cited from earlier work
[2] = molecular target: T2, mouse DA transporter (DAT) (Mus musculus, UniProt Q61327); test: Fast-scan cyclic voltammetry of DA release in striatal slices; details: bath application: DETQ 200 nM; cocaine 5 µM
T2 construct: Lack of DETQ effect on the endogenous DA transporter; from tissue; host or cells: mouse striatal brain slices
T2 sequence (Q61327 whole entry): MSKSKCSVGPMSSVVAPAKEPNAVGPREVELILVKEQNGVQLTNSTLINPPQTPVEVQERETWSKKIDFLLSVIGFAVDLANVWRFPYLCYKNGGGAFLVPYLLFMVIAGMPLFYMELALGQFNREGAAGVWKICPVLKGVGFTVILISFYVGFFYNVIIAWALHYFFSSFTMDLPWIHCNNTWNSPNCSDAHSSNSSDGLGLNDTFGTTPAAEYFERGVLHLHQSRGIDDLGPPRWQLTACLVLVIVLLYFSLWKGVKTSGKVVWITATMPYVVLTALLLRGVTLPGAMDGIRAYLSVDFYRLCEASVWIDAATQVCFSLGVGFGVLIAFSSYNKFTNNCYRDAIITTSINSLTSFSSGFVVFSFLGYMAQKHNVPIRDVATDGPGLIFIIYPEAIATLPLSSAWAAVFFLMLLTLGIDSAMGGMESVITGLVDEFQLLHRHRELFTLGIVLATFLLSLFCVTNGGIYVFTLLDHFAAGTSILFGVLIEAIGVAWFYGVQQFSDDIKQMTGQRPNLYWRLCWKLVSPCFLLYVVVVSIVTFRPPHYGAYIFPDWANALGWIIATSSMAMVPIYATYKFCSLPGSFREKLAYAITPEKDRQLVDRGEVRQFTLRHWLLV
Protocol: Striatal DA release was measured using fast-scan cyclic voltammetry (FSCV) with a carbon fiber electrode (CFE; diameter 7 µm, length 50–100 µm) positioned approximately 100 µm below the surface of the slice. The CFE was scanned across a triangular waveform (−0.4 to +1.3 V, 400 V/s) at 10 Hz, and DA release was evoked by single-pulse electrical stimulation (30 µA, 0.5 ms) with an inter-stimulus interval of 180 s. DA release was evoked in the presence of DHBE (1 µM) to block nicotinic acetylcholine receptors. Peak background-subtracted DA oxidation current was measured at +0.6 V, and drugs were washed on after establishing a stable baseline.

dLight1.3b = test: In vivo photometry of optogenetically-evoked DA release in PFC; set-up: species or system mouse; details: cocaine 20 mg/kg after DETQ 10 mg/kg
Protocol: (§1) Fiber photometry combined with optogenetics was conducted using a RZ10X LUX-I/O Processor with integrated LEDs (Tucker-Davis Technologies) combined with a filter/mirror minicube set (FMC6_IE(400-410)_E1(467-497)_F1(507-554)_E2(566-586)_F2(600-680)_S) (Doric Lenses). […] Low-autofluorescence patch cords (400 µm/0.57 NA, Doric) were attached to the optic fibers (400 µm/0.66 NA, Doric) on the mouse’s head to collect fluorescence emissions. Signals were filtered through 500–540 nm GFP emission filters coupled to a photodetector on the RZ10X. […] Data were sampled at 1017.3 Hz. […] For optogenetic stimulation, a 635 nm LED was passed through the 580–680 nm minicube F2 port and reached the mouse through the same unique optic fiber; the LED was driven at 1 to 3 mW. To determine the ‘temporal window for stable imaging’ in the PFC using dLight1.3b recordings, DAT^IREScre mice expressing ChrimsonR in VTA DA axons and dLight1.3b in the PFC were injected i.p. with vehicle at 0 min, followed by DETQ (10 mg/kg) 25 min later. After each injection, PFC DA axons were optically (opto) activated across 5 trials (2 s, 20 Hz, 20-ms pulses) for the vehicle (20 min) and 19 trials for DETQ (1h05 min) every 5 min. DA release was measured with fiber photometry. In another session, the same mice were injected with Veh, then DETQ (10 mg/kg) 20 min later, then cocaine (20 mg/kg) 25 min later, and the same optogenetic protocol was applied (2 s, 20 Hz, 20-ms pulses every 5 min). For optogenetic validation of AlloLite-ctr in the NAc, DAT^IREScre mice expressing ChrimsonR in VTA DA axons were injected i.p. with vehicle (Day 1) or DETQ (10 mg/kg) (Day 8) at 0 min, followed by cocaine (20 mg/kg) 20 min later. After each injection, NAc DA axons were optically (opto) activated across 3 trials (2 s, 20 Hz, 20-ms pulses) every 5 min and DA released measured with fiber photometry. […] After each injection, NAc DA axons were optically (opto) inhibited (10 s, continuous trials) every 3 min (8 trials/condition) and DA released measured with fiber photometry. […] DA release was measured with fiber photometry.
For long-term recordings during optogenetic stimulation or chemogenetic inhibition linear fit was calculated across the entire recording or across the vehicle epoch; for event-related experiments fit was performed on fluorescent data obtained in the −60 to +60 s around opto events or −5 to −1 s around behavioral events. […] DA event-related responses were quantified by computing the value at the transient’s peak value and the AUC in the 0 to 10 s or 0 to 60 s period post-event onset. […] The maximal peak value of Veh-normalized ΔF/F0 after opto-onset was plotted over time and the plateau of maximal response was determined by averaging peak opto responses 5, 10, 15 and 20 min post-DETQ. […]

AlloLite-ctr = test: In vivo photometry of AlloLite-ctr in NAc; set-up: species or system mouse; details: cocaine 20 mg/kg
Protocol: as §1, with “After each injection, PFC DA axons were optically (opto) activated across 5 trials (2 s, 20 Hz, 20-ms pulses) for the vehicle (20 min) and 19 trials for DETQ (1h05 min) every 5 min.” left out, “In another session, the same mice were injected with Veh, then DETQ (10 mg/kg) 20 min later, then cocaine (20 mg/kg) 25 min later, and the same optogenetic protocol was applied (2 s, 20 Hz, 20-ms pulses every 5 min). For optogenetic validation of AlloLite-ctr in the NAc, DAT^IREScre mice expressing ChrimsonR in VTA DA axons were injected i.p. with vehicle (Day 1) or DETQ (10 mg/kg) (Day 8) at 0 min, followed by cocaine (20 mg/kg) 20 min later.” left out
For long-term recordings during optogenetic stimulation or chemogenetic inhibition linear fit was calculated across the entire recording or across the vehicle epoch; for event-related experiments fit was performed on fluorescent data obtained in the −60 to +60 s around opto events or −5 to −1 s around behavioral events. […] DA event-related responses were quantified by computing the value at the transient’s peak value and the AUC in the 0 to 10 s or 0 to 60 s period post-event onset. […]

Open field behavior = format: in vivo, mouse; details: untethered mice, 45 min; DETQ 3, 10, 30 mg/kg i.p.; cocaine 20 mg/kg
Protocol: For combined locomotion/photometry experiments in the open field (OF) in tethered mice, a 50 × 50 cm arena was used. Fiber photometry was conducted using a Doric photometry rig combined with a filter/mirror minicube set (Doric Lenses), as above. […] Data were sampled at 122 Hz. […] Mice were habituated to the chamber for 3 consecutive days (30 minutes per day). On experimental days, locomotor activity was video recorded and synchronized with fiber photometry signal recording. The baseline DA signal was recorded for 20 minutes, then the mouse received i.p. injection of vehicle or DETQ (10 mg/kg) in interleaved sessions. Following injection, the DA signal was recorded for an additional 90 minutes. The OF chamber was cleaned with ethanol and water between mice. Recording sessions were repeated at 48 hours intervals. Mouse behavior as well as photometry signals were analyzed with a custom-written MATLAB script. Mouse locomotion was computed using the body center point of the animal. The center zone of the arena was defined automatically during behavior data analysis as the 25 × 25 cm square with the central point aligned to the center of the open field. The distance moved and time spent in the center zone were quantified in 10 minutes time bins and as the total during the 90 minutes after ip injections. To test the dose-dependent effects of DETQ on locomotion in untethered mice, mice were injected i.p. with vehicle, DETQ (3, 10 or 30 mg/kg) or cocaine (20 mg/kg) while their locomotor activity was recorded in an OF arena (60 x 60 cm) for 45 min. Videos were recorded with a Logitech C270 camera and analyzed with DeepLabCut (version 2.1.8.2)[84] on an existing open field network. Representative traces were generated with the Anymaze (v7.2) software (Stoelting Co.).

SMILES: CCN1CCN(C2=Nc3cc(Cl)ccc3Nc3c(F)cccc32)CC1 [J60]
- step-like increase in dLight1.3b baseline signal observed with DETQ (hM4Di in VTA DA neurons): dose-dependently decreased

SMILES: CN1CCc2cc(Cl)c(O)cc2[C@@H](c2ccccc2)C1 [SCH-23390]
- footshock-induced activity in NAc DRD1-MSNs (NAc DRD1-MSNs): reduces
- behavioral effect of DETQ in hD1 mice [1]: blocked

SMILES: COC(=O)[C@H]1[C@@H](OC(=O)c2ccccc2)C[C@@H]2CC[C@H]1N2C [cocaine]
- decay constant (tau) of DA signals [2]: slowed the decay
- peak DA release [2]: significantly increased
- baseline fluorescence of the sensor after DETQ (dLight1.3b): further boosted
- decay time of opto-evoked DA peaks (AlloLite-ctr): increased decay time
- locomotion in open field (Open field behavior): increase
